Assays:
SCC-VII cells [1] = test: Cell viability assay (methylene blue), cytotoxicity of 5-aza-dC; format: cell-based, mouse; settings: 5 days treatment
[2] = test system: caspases 3 and 7 in ifnar−/− MEFs; test: Caspase-3,7 activity assay (Ac-DEVD-AMC); settings: 48 hours
[3] = target: DNA methyltransferase I (DNMT1) (Mus musculus, UniProt P13864); test: Western blot of DNMT1 protein level; format: cell-based; settings: both p53-WT and p53-null cells, 48 hours
SCC-VII cells [4] = test: RT-PCR of IFNβ1, IRF7 and CXCL10 mRNA; settings: 10 μM 48 hours
CT26 cells [5] = test: Cell viability assay (methylene blue), cytotoxicity of 5-aza-dC; format: cell-based, mouse; settings: 5 days treatment
[6] = test system: primary mouse hepatocytes (quiescent); test: Viability of quiescent primary hepatocytes (methylene blue); format: cell-based; settings: p53-wt and null hepatocytes, 5 days
LLC cells [7] = test: Dot-blot hybridization for GSAT RNA; settings: 10 μM 48 hours
CT26 cells [8] = test: Dot-blot hybridization for GSAT RNA; settings: CT26, 10 μM 48 hours
LLC cells [9] = test: RT-PCR of IFNβ1, IRF7 and CXCL10 mRNA; settings: 10 μM 48 hours
SCC-VII cells [10] = test: Dot-blot hybridization for GSAT RNA; settings: 10 μM 48 hours
LLC cells [11] = test: Cell viability assay (methylene blue), cytotoxicity of 5-aza-dC; format: cell-based, mouse; settings: 5 days treatment

DNA methyltransferase I (DNMT1), sequence (P13864 whole entry): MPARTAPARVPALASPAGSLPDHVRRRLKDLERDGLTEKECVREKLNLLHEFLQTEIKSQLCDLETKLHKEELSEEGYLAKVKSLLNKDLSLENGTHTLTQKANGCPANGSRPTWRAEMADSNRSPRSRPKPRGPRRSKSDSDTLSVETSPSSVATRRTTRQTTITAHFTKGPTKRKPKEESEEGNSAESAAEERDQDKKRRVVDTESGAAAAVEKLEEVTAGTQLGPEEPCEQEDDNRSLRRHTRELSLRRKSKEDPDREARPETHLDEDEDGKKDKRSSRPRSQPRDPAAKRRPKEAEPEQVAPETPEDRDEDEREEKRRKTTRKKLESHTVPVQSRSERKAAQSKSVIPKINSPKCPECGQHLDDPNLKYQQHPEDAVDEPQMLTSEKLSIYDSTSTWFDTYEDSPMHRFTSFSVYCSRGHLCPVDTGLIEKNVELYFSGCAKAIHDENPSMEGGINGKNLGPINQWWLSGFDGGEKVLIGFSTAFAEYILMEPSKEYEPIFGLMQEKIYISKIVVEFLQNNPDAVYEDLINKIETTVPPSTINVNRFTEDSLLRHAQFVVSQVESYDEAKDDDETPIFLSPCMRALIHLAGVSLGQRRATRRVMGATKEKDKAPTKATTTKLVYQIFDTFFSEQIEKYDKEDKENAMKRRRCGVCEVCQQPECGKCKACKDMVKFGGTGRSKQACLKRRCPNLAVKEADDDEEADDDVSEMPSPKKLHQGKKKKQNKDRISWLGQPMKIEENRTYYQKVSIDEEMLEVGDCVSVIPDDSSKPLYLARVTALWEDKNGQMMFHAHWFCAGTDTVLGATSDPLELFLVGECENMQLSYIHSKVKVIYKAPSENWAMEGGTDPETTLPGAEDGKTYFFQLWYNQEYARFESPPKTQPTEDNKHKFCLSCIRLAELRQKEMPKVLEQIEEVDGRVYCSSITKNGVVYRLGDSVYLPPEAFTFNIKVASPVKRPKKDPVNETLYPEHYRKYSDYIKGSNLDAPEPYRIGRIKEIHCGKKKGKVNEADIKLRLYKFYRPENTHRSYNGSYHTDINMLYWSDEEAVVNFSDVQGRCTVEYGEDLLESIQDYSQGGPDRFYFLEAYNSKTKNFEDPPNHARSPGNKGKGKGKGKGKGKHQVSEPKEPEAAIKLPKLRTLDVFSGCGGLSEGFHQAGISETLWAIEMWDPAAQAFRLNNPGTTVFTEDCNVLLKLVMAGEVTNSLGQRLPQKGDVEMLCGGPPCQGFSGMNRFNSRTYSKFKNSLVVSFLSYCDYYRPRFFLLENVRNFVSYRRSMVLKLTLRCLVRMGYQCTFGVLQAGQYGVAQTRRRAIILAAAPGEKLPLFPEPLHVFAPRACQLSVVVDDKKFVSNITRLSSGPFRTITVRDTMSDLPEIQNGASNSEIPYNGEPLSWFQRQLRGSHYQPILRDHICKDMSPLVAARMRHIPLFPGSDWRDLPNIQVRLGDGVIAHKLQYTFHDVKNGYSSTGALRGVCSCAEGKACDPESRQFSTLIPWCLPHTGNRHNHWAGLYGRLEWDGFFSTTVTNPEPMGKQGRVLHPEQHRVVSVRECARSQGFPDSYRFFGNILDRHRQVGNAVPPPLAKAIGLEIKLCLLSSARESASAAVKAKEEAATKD

In the case of `Nc1ncn([C@H]2C[C@H](O)[C@@H](CO)O2)c(=O)n1` [5-aza-dC, 5-aza-2′-deoxycytidine], the LD50 (SCC-VII cells [1]) is reported as 0.125 µM, the caspase activation [2] is reported as “No signs of caspase activation” and the “free DNMT1 protein after treatment” value [3] is reported as “complete depletion”. The “mRNAs encoding IFNβ1, IRF7 and CXCL10” value (SCC-VII cells [4]) was “strong upregulation”, the LD50 (CT26 cells [5]) was 2 µM and the “sensitivity of quiescent cells to cultivation with 5-aza-dC” value [6] was “resistant”. For the same compound, the “expression of GSAT RNA upon treatment” value (LLC cells [7]) was “undetectable”, the “expression of GSAT RNA upon treatment” value (CT26 cells [8]) was “intermediate” and the “mRNAs encoding IFNβ1, IRF7 and CXCL10” value (LLC cells [9]) was “none of these IFN response-associated transcripts was detected”. The “expression of GSAT RNA upon treatment” value (SCC-VII cells [10]) was “strong” and the LD50 (LLC cells [11]) was 14 µM.

Source: patent US20150064697A1 (priority 2012, published 2015)
